From patent publication US9527832B2, “Substituted condensed pyrimidine compounds” (GRÜNENTHAL GMBH, priority 2013, dated 2016)

Columns and labels:
human PDE4B1 = biological target: T1, human PDE4B1 (Homo sapiens, UniProt Q07343); assay: cAMP HTRF assay to determine the activity of hPDE4B1; format: biochemical; conditions: for inhibition at 1 µM: Percentage inhibition of PDE4B at 1 μM test concentration; for IC50: dose response measurements with eight concentrations, reported as ranges, read-out: IC50
T1 construct: host or cells: Sf9 cells
T1 sequence (Q07343 whole entry): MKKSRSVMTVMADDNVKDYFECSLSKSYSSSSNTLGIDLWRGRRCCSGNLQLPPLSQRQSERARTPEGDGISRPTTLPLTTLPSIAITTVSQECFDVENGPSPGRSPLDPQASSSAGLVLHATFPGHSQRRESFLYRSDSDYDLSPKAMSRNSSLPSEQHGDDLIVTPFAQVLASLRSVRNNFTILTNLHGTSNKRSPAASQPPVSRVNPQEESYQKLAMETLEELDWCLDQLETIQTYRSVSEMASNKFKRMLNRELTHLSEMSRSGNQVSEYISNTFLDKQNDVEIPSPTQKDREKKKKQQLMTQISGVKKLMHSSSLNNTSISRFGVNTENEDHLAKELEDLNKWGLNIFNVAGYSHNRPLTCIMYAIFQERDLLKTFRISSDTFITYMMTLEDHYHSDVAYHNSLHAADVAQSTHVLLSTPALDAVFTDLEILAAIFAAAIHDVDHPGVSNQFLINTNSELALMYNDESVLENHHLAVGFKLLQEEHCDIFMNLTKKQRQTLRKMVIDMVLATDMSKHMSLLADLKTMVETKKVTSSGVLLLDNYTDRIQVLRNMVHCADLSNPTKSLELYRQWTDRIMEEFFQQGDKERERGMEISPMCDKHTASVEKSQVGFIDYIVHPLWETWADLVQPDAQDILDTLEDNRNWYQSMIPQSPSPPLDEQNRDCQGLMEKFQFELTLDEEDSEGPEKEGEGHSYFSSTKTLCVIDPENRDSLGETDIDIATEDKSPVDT
Summary of the method: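 Sf9-expressed recombinant human PDE4B1 (4.8 U) in Tris-HCl/MgCl2/DTT/Tween 20 buffer pH 7.8, with cAMP at 40 nM final, 30 min at room temperature. Reaction stopped with IBMX 1 mM; remaining cAMP detected by HTRF (665/620 nm ratio). IC50 from eight-point dose-response, n=2.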

| SMILES | inhibition at 1 µM (human PDE4B1) [%] | IC50 (human PDE4B1) [nM] | melting point [°C] |
| --- | --- | --- | --- |
| COc1ccc(-c2nc3c(c(N4CCc5cc(CC(=O)O)ccc54)n2)CS(=O)(=O)C3)cc1F [Compound No. 1-10, 2-(1-(2-(3-Fluoro-4-methoxy-phenyl)-6,6-dioxo-5,7-dihydro-thieno[3,4-d]pyrimidin-4-yl)-2,3-dihydro-1H-indol-5-yl)acetic acid] | 96 | < 100 | 192 to 195 |
| COc1ccc(-c2nc3c(c(N4CCc5cc(CC(=O)O)ccc54)n2)CS(=O)(=O)C3)cc1Cl [Compound No. 1-11, 2-(1-(2-(3-Chloro-4-methoxy-phenyl)-6,6-dioxo-5,7-dihydro-thieno[3,4-d]pyrimidin-4-yl)-2,3-dihydro-1H-indol-5-yl)acetic acid] | 100 | < 100 | 245 to 247 |
| COc1ccc(-c2nc3c(c(N4CCc5cc(CC(=O)O)ccc54)n2)CS(=O)(=O)C3)cc1 [Compound No. 1-12, 2-(1-(2-(4-Methoxyphenyl)-6,6-dioxo-5,7-dihydro-thieno[3,4-d]pyrimidin-4-yl)-2,3-dihydro-1H-indol-5-yl)acetic acid] | 108 | < 100 | 239 to 243 |
| COc1ccc(-c2nc3c(c(N4CCc5c(OCC(=O)N(C)C)cccc54)n2)CS(=O)(=O)C3)cc1 [Compound No. 2-2, 2-((1-(2-(4-Methoxyphenyl)-6,6-dioxo-5,7-dihydro-thieno[3,4-d]pyrimidin-4-yl)-2,3-dihydro-1H-indol-4-yl)oxy)-N,N-dimethyl-acetamide] | – | – | 225 to 232 |
| CN(C)C(=O)COc1cccc2c1CCN2c1nc(-c2cccc(F)c2)nc2c1CS(=O)(=O)C2 [Compound No. 2-4, 2-((1-(2-(3-Fluorophenyl)-6,6-dioxo-5,7-dihydro-thieno[3,4-d]pyrimidin-4-yl)-2,3-dihydro-1H-indol-4-yl)oxy)-N,N-dimethyl-acetamide] | – | – | 237 to 245 |
| CN(C)C(=O)COc1cccc2c1CCN2c1nc(-c2cccc(Cl)c2)nc2c1CS(=O)(=O)C2 [Compound No. 2-6, 2-((1-(2-(3-Chlorophenyl)-6,6-dioxo-5,7-dihydro-thieno[3,4-d]pyrimidin-4-yl)-2,3-dihydro-1H-indol-4-yl)oxy)-N,N-dimethyl-acetamide] | – | – | 222 to 226 |
| COc1ccc(-c2nc3c(c(N4CCc5c(OCC(=O)N(C)C)cccc54)n2)CS(=O)(=O)C3)cc1F [Compound No. 2-10, 2-((1-(2-(3-Fluoro-4-methoxy-phenyl)-6,6-dioxo-5,7-dihydro-thieno[3,4-d]pyrimidin-4-yl)-2,3-dihydro-1H-indol-4-yl)oxy)-N,N-dimethyl-acetamide] | – | – | 231 to 233 |
| CN(C)C(=O)COc1cccc2c1CCN2c1nc(-c2ccc(F)c(F)c2)nc2c1CS(=O)(=O)C2 [Compound No. 2-12, 2-((1-(2-(3,4-Difluoro-phenyl)-6,6-dioxo-5,7-dihydro-thieno[3,4-d]pyrimidin-4-yl)-2,3-dihydro-1H-indol-4-yl)oxy)-N,N-dimethyl-acetamide] | – | – | 212 to 217 |
| O=C(COc1ccc2c(c1)N(c1nc(-c3ccc(Cl)s3)nc3c1CCC3)CC2)N1CCCC1 [Compound No. 2-142, 2-((1-(2-(5-Chlorothiophen-2-yl)-6,7-dihydro-5H-cyclopenta[d]pyrimidin-4-yl)indolin-6-yl)oxy)-1-(pyrrolidin-1-yl)ethanone] | 61 | 100 to 1000 | 209 to 212 |

Results, then the molecule that gave them:

| inhibition at 1 µM (human PDE4B1) [%] | IC50 (human PDE4B1) [nM] | melting point [°C] | SMILES |
| --- | --- | --- | --- |
| – | 100 to 1000 | – | N#CCOc1ccc2c(c1)N(c1nc(-c3ccc(Cl)s3)nc3c1CS(=O)(=O)C3)CC2 [Compound No. 3-1, 2-((1-(2-(5-Chlorothiophen-2-yl)-6,6-dioxido-5,7-dihydrothieno[3,4-d]pyrimidin-4-yl)indolin-6-yl)oxy)acetonitrile] |
| – | 100 to 1000 | – | CN(C)CCOc1ccc2c(c1)N(c1nc(-c3ccc(Cl)s3)nc3c1CS(=O)(=O)C3)CC2 [Compound No. 3-3, 2-(5-Chlorothiophen-2-yl)-4-(6-(2-(dimethylamino)ethoxy)indolin-1-yl)-5,7-dihydrothieno[3,4-d]pyrimidine 6,6-dioxide] |
| – | 100 to 1000 | – | CCNC(=O)Cc1ccc2c(c1)CCN2c1nc(-c2ccc(Cl)s2)nc2c1CS(=O)(=O)C2 [Compound No. 3-4, 2-(1-(2-(5-Chlorothiophen-2-yl)-6,6-dioxido-5,7-dihydrothieno[3,4-d]pyrimidin-4-yl)indolin-5-yl)-N-ethylacetamide] |
| – | 100 to 1000 | – | CNC(=O)Cc1ccc2c(c1)CCN2c1nc(-c2ccc(Cl)s2)nc2c1CS(=O)(=O)C2 [Compound No. 3-5, 2-(1-(2-(5-Chlorothiophen-2-yl)-6,6-dioxido-5,7-dihydrothieno[3,4-d]pyrimidin-4-yl)indolin-5-yl)-N-methylacetamide] |
| 103 | < 100 | – | NC(=O)Cc1ccc2c(c1)CCN2c1nc(-c2ccc(Cl)s2)nc2c1CS(=O)(=O)C2 [Compound No. 3-6, 2-(1-(2-(5-Chlorothiophen-2-yl)-6,6-dioxido-5,7-dihydrothieno[3,4-d]pyrimidin-4-yl)indolin-5-yl)acetamide] |
| 48 | – | – | CN(C)CCOc1ccc2c(c1)N(c1nc(-c3ccc(Cl)s3)nc3c1CCC3)CC2 [Compound No. 3-7, 2-((1-(2-(5-Chlorothiophen-2-yl)-6,7-dihydro-5H-cyclopenta[d]-pyrimidin-4-yl)indolin-6-yl)oxy)-N,N-dimethylethanamine] |
| 32 | – | – | CN(C)C(=O)Cc1ccc2c(c1)CCN2c1nc(-c2ccc(Cl)s2)nc2c1CS(=O)(=O)C2 [Compound No. 3-8, 2-(1-(2-(5-Chlorothiophen-2-yl)-6,6-dioxido-5,7-dihydrothieno[3,4-d]pyrimidin-4-yl)indolin-5-yl)-N,N-dimethylacetamide] |
